The values that follow are results of earlier work, collected in patent US9693981B2 (INTEC PHARMA LTD., priority 2008, dated 2017).

Molecules are shown by their SMILES.

The conditions of data set [1]: high-fat/heavy meal compared to the fasted state, healthy adults.
For data set [2] the following is noted: according to the USP 30.

For the compound `CCN(C(C)=O)c1cccc(-c2ccnc3c(C#N)cnn23)c1` [Zaleplon], in data set [1], the AUC entry is listed as “not significantly affected”, the “delay of Tmax” value is listed as “approximately 2 hours” and the “reduction of Cmax” value is recorded as “approximately 35%”. Moreover, the solubility entry in data set [2] is listed as “very slightly soluble”.
